The record followed here is patent US11999683B2, “Lipocationic dendrimers and uses thereof” (priority 2015, dated 2024).

SMILES strings stand for the structures.

Series [1] is described as follows: In vivo toxicity evaluation (body weight) in wild type mice. The conditions noted are these: i.v., 4 mg siCTR/kg (100 mg dendrimer/kg or 28 mg C12-200/kg). The protocol:
(§1) Wild-type mice or transgenic mice bearing liver tumors were randomly divided into different groups. Mice received tail vein i.v. injections of dendrimer NPs containing siCTR. Their body weight was monitored daily. For transgenic mice bearing liver tumors, multiple tail vain injections were performed to simulate repeated dosing.
To identify degradable dendrimers with the required balance of low toxicity and high potency required for liver cancer treatment, the degradable dendrimers were chose to evaluate their in vivo toxicity. In parallel, we analyzed C12-200 lipidoid LNPs wee chose as the best example of a non-hydrolyzable system previously shown to be potent in mice and non-human primates (Love et al., 2010). Lipidoids, as a class, are benchmark materials at the forefront of clinical research (Kanasty et al., 2013; Love et al., 2010; Sahay et al., 2013). Non-immunogenic control siRNA was used to best evaluate the toxicity of the individual dendrimers themselves. Dendrimer NPs were formulated at a weight ratio of 25:1 (dendrimer:siCTR), higher than necessary to better probe toxicity. C12-200 LNPs were prepared using identical formulation parameters as previously reported (Love et al., 2010). Size and zeta potential of each NP in PBS buffer was characterized. […] Each formulated NP was injected i.v. into wild type mice at a 4 mg siCTR/kg dose (100 mg dendrimer/kg or 28 mg C12-200/kg). […]

The nature of series [2]: In vivo toxicity evaluation in transgenic mice bearing MYC-driven liver tumors. Particulars: for survival after multiple injections of siCTR NPs: tumor-bearing mice, injected days 32, 36, 40, 44 at 3 mg siCTR/kg (75 mg dendrimer/kg). On the procedure: All experiments were approved by the Institutional Animal Care and Use Committees of The University of Texas Southwestern Medical Center and were consistent with local, state and federal regulations as applicable. Female C57BL/6 mice were purchased from Harlan Laboratories (Indianapolis, IN). Transgenic mice bearing MYC-driven liver tumors were generated by crossing the TRE-MYC strain with LAP-tTA strain. Mice bearing the LAP-tTA and TRE-MYC genotype were maintained on 1 mg/mL of dox, and MYC was induced by withdrawing dox. Power analysis was performed to anticipate required number of animals to achieve statistical significance.
as §1
A well-established Tet-On MYC inducible transgenic liver cancer model ws chosen (FIG. 13A) (Nguyen et al., 2014). […] At the age of 32 days (p32), these sick transgenic mice bearing aggressive liver tumors were injected with 5A2-SC8 or 6A3-SC12 NPs at 3 mg siCTR/kg dosage (75 mg dendrimer/kg or 21 mg C12-200/kg). […] In contrast to the result in WT mice, injection of C12-200 LNPs to mice bearing aggressive tumors lost >20% weight after one day, despite receiving ˜3 times less lipid than 5A2-SC8 injected mice (FIG. 12D). […] In addition to being less toxic than benchmark compounds, 5A2-SC8 NPs are more efficacious because these dendrimers reduce clinical concern for dose limiting toxicity and enable a wider therapeutic window.

Series [3] in a line: Biodistribution of Cy5.5-labeled siRNA in liver tumor-bearing mice. It is filed as in vivo. The conditions noted are these: Cy5.5-labeled siRNA 1 mg/kg i.v., 24 hours post-injection. On the procedure: Female C57BL/6 mice or transgenic mice bearing liver tumors received tail vein i.v. injections with dendrimer NPs containing Cy5.5-siRNA at 1 mg/kg of siRNA in 200 μL. At 24 h post injection, mice were euthanized and organs were removed. The biodistribution was assessed by imaging whole organs with an IVIS Lumina System (Caliper Life Sciences) with the Cy5.5 filter setting.
For confocal imaging, the tissue was cryo-sectioned ([…]) and fixed using 4% paraformaldehyde at room temperature for 10 min. The slides were washed three times with PBS and blocked for 30 min in PBS with 1% albumin. Sections were then incubated for 30 min with Alexa Fluor 488 Phalloidin (1:200 dilution, Life Technologies) in PBS with 1% albumin. Slides were washed three times with 0.1% Tween 20 and mounted using ProLong Gold Antifade (Life Technologies). Sections were imaged using an LSM 700 point scanning confocal microscope (Zeiss) equipped with a 25× objective.
Since 5A2-SC8 balances low in vivo toxicity and effectiveness for silencing the hepatocellular target FVII, first, whether 5A2-SC8 NPs could deliver siRNA into tumor cells was examined. At the age of 41 days (p41), the livers of these transgenic mice are full of tumors (FIG. 14A). On p40, mice were injected intravenously with 5A2-SC8 NPs with Cy5.5-labeled siRNA at a dosage of 1 mg siRNA/kg. […]

The next series concerns Factor VII. Kind of series: In vivo Factor VII silencing in mice. Particulars: 1 mg siFVII/kg. On the procedure:
For in vivo delivery screening, female C57BL/6 mice received tail vein i.v. injections of PBS (negative control, n=3) or dendrimer NPs containing non-targeting siRNA (siCTR, negative control, n=3) or dendrimer NPs containing anti-Factor VII siRNA (siFVII, n=3) diluted in PBS (200 μL or less in total volume). After 48 h, body-weight gain/loss was measured and mice were anaesthetized by isofluorane inhalation for blood sample collection by retro-orbital eye bleed. Serum was isolated with serum separation tubes (Becton Dickinson) and Factor VII protein levels were analyzed by a chromogenic assay (Biophen FVII, Aniara Corporation). A standard curve was constructed using samples from PBS-injected mice and relative Factor VII expression was determined by comparing treated groups to an untreated PBS control.
Having identified dendrimers that can overcome intracellular barriers, next, the dendrimers that can overcome extracellular barriers to efficiently deliver siRNA in vivo were identified. […] Dendrimers were evaluated for their ability to silence Factor VII in hepatocytes because this blood clotting factor can be readily quantified from a small serum sample (Akinc et al., 2008; Semple et al., 2010). […] FVII activity was quantified 3 days post injection.

Where [4] appears, read: tumor-bearing mice p32, 3 mg siCTR/kg (75 mg dendrimer/kg).

Take `CCCCCCCCSCC(C)C(=O)OCCOC(=O)CCN(CCNCCN(CCC(=O)OCCOC(=O)C(C)CSCCCCCCCC)CCC(=O)OCCOC(=O)C(C)CSCCCCCCCC)CCNCCN(CCC(=O)OCCOC(=O)C(C)CSCCCCCCCC)CCC(=O)OCCOC(=O)C(C)CSCCCCCCCC` (centres unmarked) [5A2-SC8]: the body weight change result in series [1] is “quicker recovery and gained weight normally after the first day”. The “tolerance in tumor-bearing mice” value in series [2] (LAP-tTA/TRE-MYC transgenic, mouse, in vivo) is “up to 75 mg/kg”. For the same compound, the body weight loss result in series [2] (tumor-bearing mice p32, 3 mg siCTR/kg (75 mg dendrimer/kg or 21 mg C12-200/kg), after one day) is listed as “about 5%”. In series [2] (setting [4]), the body weight recovery entry was “quickly returned to their starting weight on the second day”. Further, the “survival after multiple injections of siCTR NPs” value in series [2] is “well tolerated and not affect survival”. In series [3], the “siRNA accumulation in organs (fluorescence imaging)” value was “siRNA accumulation in the cancerous liver, with only minor accumulation in the spleen and kidneys”. Besides, the “in vivo FVII knockdown” value in the series on Factor VII was > 95%.
In the case of `CCCCCCCCCCCCSCC(C)C(=O)OCCOC(=O)CCN(CCC(=O)OCCOC(=O)C(C)CSCCCCCCCCCCCC)CCN(CCN(CCC(=O)OCCOC(=O)C(C)CSCCCCCCCCCCCC)CCC(=O)OCCOC(=O)C(C)CSCCCCCCCCCCCC)CCN(CCC(=O)OCCOC(=O)C(C)CSCCCCCCCCCCCC)CCC(=O)OCCOC(=O)C(C)CSCCCCCCCCCCCC` (centres unmarked) [6A3-SC12], in series [1], the body weight change entry is “quicker recovery and gained weight normally after the first day”. Moreover, the body weight recovery result in series [2] (setting [4]) is reported as “could not recover”. Moreover, in series [2] (tumor-bearing mice p32, 3 mg siCTR/kg (75 mg dendrimer/kg), by the third day), the body weight loss is 10%. For the same compound, the “survival after multiple injections of siCTR NPs” value in series [2] is listed as “died seven days earlier compared to mice that received no treatment”.
